Test results as given in the NIST ThermoML archive (doi:10.1021/je900596d).

Conditions: Vibrating tube method

FC(F)=C(F)C(F)(F)F [hexafluoropropene]
Conditions | mass density [kg/m3]
323.21 K, 828.7 kPa, Fluid (supercritical or subcritical phases) | 54.45
323.21 K, 843.1 kPa, Fluid (supercritical or subcritical phases) | 55.34
323.21 K, 857.3 kPa, Fluid (supercritical or subcritical phases) | 56.72
323.21 K, 871.6 kPa, Fluid (supercritical or subcritical phases) | 57.78
323.21 K, 885.7 kPa, Fluid (supercritical or subcritical phases) | 58.95
323.21 K, 899.5 kPa, Fluid (supercritical or subcritical phases) | 60.25
323.21 K, 913.3 kPa, Fluid (supercritical or subcritical phases) | 61.27
323.21 K, 926.9 kPa, Fluid (supercritical or subcritical phases) | 62.44
323.21 K, 940.4 kPa, Fluid (supercritical or subcritical phases) | 63.5
323.21 K, 953.6 kPa, Fluid (supercritical or subcritical phases) | 64.78
323.21 K, 979.1 kPa, Fluid (supercritical or subcritical phases) | 66.9
323.21 K, 991.3 kPa, Fluid (supercritical or subcritical phases) | 67.99
323.21 K, 1002.7 kPa, Fluid (supercritical or subcritical phases) | 69.01
323.21 K, 1014.7 kPa, Fluid (supercritical or subcritical phases) | 70.07
323.21 K, 1026.1 kPa, Fluid (supercritical or subcritical phases) | 71.06
323.21 K, 1037.2 kPa, Fluid (supercritical or subcritical phases) | 72
323.21 K, 1048.9 kPa, Fluid (supercritical or subcritical phases) | 73.11
323.21 K, 1059.5 kPa, Fluid (supercritical or subcritical phases) | 74
323.21 K, 1071.8 kPa, Fluid (supercritical or subcritical phases) | 75.2
323.21 K, 1084.6 kPa, Fluid (supercritical or subcritical phases) | 76.45
323.21 K, 1096.6 kPa, Fluid (supercritical or subcritical phases) | 77.55
323.21 K, 1108.7 kPa, Fluid (supercritical or subcritical phases) | 78.69
323.21 K, 1120.7 kPa, Fluid (supercritical or subcritical phases) | 80.05
323.21 K, 1132.3 kPa, Fluid (supercritical or subcritical phases) | 81.01
323.21 K, 1143.9 kPa, Fluid (supercritical or subcritical phases) | 82.09
323.21 K, 1155.2 kPa, Fluid (supercritical or subcritical phases) | 83.24
323.21 K, 1165.7 kPa, Fluid (supercritical or subcritical phases) | 84.23
323.21 K, 1176.1 kPa, Fluid (supercritical or subcritical phases) | 85.31
323.21 K, 1188.5 kPa, Fluid (supercritical or subcritical phases) | 86.52
323.21 K, 1200.2 kPa, Fluid (supercritical or subcritical phases) | 87.81
323.21 K, 1211.6 kPa, Fluid (supercritical or subcritical phases) | 88.92
323.21 K, 1222.4 kPa, Fluid (supercritical or subcritical phases) | 90.01
323.21 K, 1232.6 kPa, Fluid (supercritical or subcritical phases) | 91.08
323.21 K, 1244.2 kPa, Fluid (supercritical or subcritical phases) | 92.41
323.21 K, 1254.9 kPa, Fluid (supercritical or subcritical phases) | 93.54
323.21 K, 1265.5 kPa, Fluid (supercritical or subcritical phases) | 94.64
323.21 K, 1276.2 kPa, Fluid (supercritical or subcritical phases) | 95.86
323.21 K, 1286.6 kPa, Fluid (supercritical or subcritical phases) | 97.01
323.21 K, 1298.7 kPa, Fluid (supercritical or subcritical phases) | 98.44
323.21 K, 1311.6 kPa, Fluid (supercritical or subcritical phases) | 99.8
323.21 K, 1324 kPa, Fluid (supercritical or subcritical phases) | 101.35
323.21 K, 1336 kPa, Fluid (supercritical or subcritical phases) | 102.77
323.21 K, 1347.5 kPa, Fluid (supercritical or subcritical phases) | 104.06
323.21 K, 1358.7 kPa, Fluid (supercritical or subcritical phases) | 105.47
323.21 K, 1369.5 kPa, Fluid (supercritical or subcritical phases) | 106.75
323.21 K, 1380 kPa, Fluid (supercritical or subcritical phases) | 108.11
323.21 K, 1392.5 kPa, Fluid (supercritical or subcritical phases) | 109.8
323.21 K, 1402.5 kPa, Fluid (supercritical or subcritical phases) | 110.98
323.21 K, 1410.5 kPa, Fluid (supercritical or subcritical phases) | 112.1
323.21 K, 1411.1 kPa, Fluid (supercritical or subcritical phases) | 112.29
323.21 K, 1411.8 kPa, Fluid (supercritical or subcritical phases) | 112.41
323.21 K, 1412.5 kPa, Fluid (supercritical or subcritical phases) | 112.57
323.21 K, 1413.3 kPa, Fluid (supercritical or subcritical phases) | 112.79
323.21 K, 1414.6 kPa, Fluid (supercritical or subcritical phases) | 113.23
323.21 K, 1415.9 kPa, Fluid (supercritical or subcritical phases) | 113.81
323.21 K, 1417 kPa, Fluid (supercritical or subcritical phases) | 114.07
323.21 K, 1417.8 kPa, Fluid (supercritical or subcritical phases) | 114.29
323.21 K, 1418.6 kPa, Fluid (supercritical or subcritical phases) | 115.65
323.21 K, 1418.8 kPa, Fluid (supercritical or subcritical phases) | 116.26
323.37 K, 1419.4 kPa, Liquid | 1174.23
323.37 K, 1421.5 kPa, Liquid | 1174.38
323.37 K, 1423.2 kPa, Liquid | 1174.38
323.37 K, 1425.7 kPa, Liquid | 1174.43
323.37 K, 1427.1 kPa, Liquid | 1174.45
323.37 K, 1432.2 kPa, Liquid | 1174.63
323.37 K, 1436.2 kPa, Liquid | 1174.81
323.37 K, 1440.4 kPa, Liquid | 1174.76
323.37 K, 1445.7 kPa, Liquid | 1175
323.37 K, 1451.5 kPa, Liquid | 1175.02
323.37 K, 1457.1 kPa, Liquid | 1175.21
323.37 K, 1466.8 kPa, Liquid | 1175.47
323.37 K, 1497.2 kPa, Liquid | 1176.12
323.37 K, 1510 kPa, Liquid | 1176.43
323.37 K, 1522.1 kPa, Liquid | 1176.69
323.37 K, 1537.1 kPa, Liquid | 1176.99
323.37 K, 1549.7 kPa, Liquid | 1177.31
323.37 K, 1563.1 kPa, Liquid | 1177.61
323.37 K, 1577.9 kPa, Liquid | 1178.01
323.37 K, 1593 kPa, Liquid | 1178.25
323.37 K, 1606 kPa, Liquid | 1178.65
323.37 K, 1618.2 kPa, Liquid | 1178.79
323.37 K, 1633 kPa, Liquid | 1179.18
323.37 K, 1650.5 kPa, Liquid | 1179.47
323.37 K, 1665.3 kPa, Liquid | 1179.86
323.37 K, 1679.6 kPa, Liquid | 1180.16
323.37 K, 1693.1 kPa, Liquid | 1180.45
323.37 K, 1699.6 kPa, Liquid | 1180.56
323.37 K, 1718.6 kPa, Liquid | 1180.95
323.37 K, 1737.4 kPa, Liquid | 1181.34
323.37 K, 1760 kPa, Liquid | 1181.89
323.37 K, 1778.2 kPa, Liquid | 1182.25
323.37 K, 1797.3 kPa, Liquid | 1182.59
323.37 K, 1819.1 kPa, Liquid | 1183.13
323.37 K, 1845.8 kPa, Liquid | 1183.69
323.37 K, 1870.4 kPa, Liquid | 1184.11
323.37 K, 1897.4 kPa, Liquid | 1184.74
323.37 K, 1924.8 kPa, Liquid | 1185.37
323.37 K, 1943.5 kPa, Liquid | 1185.64
323.37 K, 1970 kPa, Liquid | 1186.24
323.37 K, 1988.8 kPa, Liquid | 1186.54
323.37 K, 2013.8 kPa, Liquid | 1187.15
323.37 K, 2040.4 kPa, Liquid | 1187.71
323.37 K, 2074.7 kPa, Liquid | 1188.33
323.37 K, 2102.6 kPa, Liquid | 1188.84
323.37 K, 2129.9 kPa, Liquid | 1189.44
323.37 K, 2157.7 kPa, Liquid | 1190.03
323.37 K, 2186.2 kPa, Liquid | 1190.47
323.37 K, 2213.3 kPa, Liquid | 1191.16
323.37 K, 2277.1 kPa, Liquid | 1192.28
323.37 K, 2311.9 kPa, Liquid | 1192.94
323.37 K, 2338 kPa, Liquid | 1193.41
323.37 K, 2366.9 kPa, Liquid | 1194
323.37 K, 2396.7 kPa, Liquid | 1194.59
323.37 K, 2428 kPa, Liquid | 1195.18
323.37 K, 2456.3 kPa, Liquid | 1195.7
323.37 K, 2482.6 kPa, Liquid | 1196.22
323.37 K, 2511.2 kPa, Liquid | 1196.77
323.37 K, 2547.6 kPa, Liquid | 1197.4
323.37 K, 2588.4 kPa, Liquid | 1198.21
323.37 K, 2628 kPa, Liquid | 1198.83
323.37 K, 2671.3 kPa, Liquid | 1199.65
323.37 K, 2714.7 kPa, Liquid | 1200.41
323.37 K, 2754.7 kPa, Liquid | 1201.07
323.37 K, 2795.1 kPa, Liquid | 1201.67
323.37 K, 2833.2 kPa, Liquid | 1202.46
323.37 K, 2876 kPa, Liquid | 1203.06
323.37 K, 2913.9 kPa, Liquid | 1203.87
323.37 K, 2953 kPa, Liquid | 1204.53
323.37 K, 2989.2 kPa, Liquid | 1205.13
323.37 K, 3027.6 kPa, Liquid | 1205.88
323.37 K, 3069.8 kPa, Liquid | 1206.59
323.37 K, 3107.8 kPa, Liquid | 1207.26
323.37 K, 3148.5 kPa, Liquid | 1207.95
